The results in this text go back to patent US20100068197A1, “PHARMACEUTICAL COMPOUNDS AS INHIBITORS OF CELL PROLIFERATION AND THE USE THEREOF” (Myriad Pharmaceuticals, Inc., priority 2008, published 2010).

The subject of experiment [1] is P388 murine leukemia cell line. Briefly: P388 cytotoxicity, cellular viability by ATP-Lite. The settings on record: Mus musculus, P388, 72 h, compound concentration required to inhibit growth by 50%, intracellular ATP. It is filed as cell-based. The method, then: A P388 murine leukemia cell line was obtained from NCI, Frederick, Md. P388 cells were cultured in RPMI-1640 supplemented with 10% fetal bovine serum, 2 mM Glutamax, 1 mM sodium pyruvate, 0.1 mM non-essential amino acids and 10 mM HEPES. Cells were grown at 37° C. in a humidified 5% CO2 atmosphere. Exponentially growing P388 cells were plated at 5,000 cells/well in a 96-well flat-bottomed microtiter plate (Corning, Costar #3595). […] Cellular viability was determined 72 hours later by measuring intracellular ATP with ATP-Lite assay system. The effect of compounds on cell viability was calculated by comparing the ATP levels of cells exposed to test compound with those of cells exposed to DMSO. A semi-log plot of relative ATP levels versus compound concentration was used to calculate the compound concentration required to inhibit growth by 50% (IC50). Data was analyzed by Prism software (GraphPad; San Diego, Calif.) by fitting it to a sigmoidal dose response curve.

The subject of experiment [2] is P388/ADR cell lines (overexpress the multidrug resistance pump MDR-1). The experiment can be described thus: Multidrug resistant cell assay, cell viability by ATP-lite. It is filed as cell-based, murine. The settings on record: Mus musculus, 72 h, multidrug resistant cells overexpressing MDR-1. The source says: Cytotoxicity of compounds in multidrug resistant cells can be determined by administering compounds to cell lines that overexpress the multidrug resistance pump MDR-1 and determining the viability of the cell lines. P388/ADR cell lines are known to overexpress the multidrug resistance pump MDR-1 (also known as P-glycoprotein-1; Pgp-1).
P388/ADR cell lines are obtained from American Type Culture Collection (Manassas, Va.) and maintained in RPMI-1640 media supplemented with 10% FCS, 10 units/mL penicillin and streptomycin, 2 mM Glutamax and 1 mM sodium pyruvate (Invitrogen Corporation, Carlsbad, Calif.). For compound testing, cells are plated in 96 well dishes at a concentration of 1.5×10^4 cells/well. Cells are allowed to adhere to the plate overnight and then incubated with compounds at final concentrations ranging from 0.13 nM to 10 μM for 72 hours. Cell viability is then assessed using the ATP-lite reagent (Perkin Elmer, Foster City, Calif.). Plates are read on a Wallac Topcount luminescence reader (Perkin Elmer, Foster City, Calif.) and the results graphed in Prism software (Graphpad Software, Inc., San Diego, Calif.). Non-linear regression with variable slope analysis is performed to obtain IC50 concentration values.

The term IC50 denotes the point on the concentration scale where inhibition reaches its midpoint. As to `COCCOCCOCCOc1nc(N(C)c2ccc(OC)cc2)c2ccccc2n1` [Example 2, (2-{2-[2-(2-Methoxy-ethoxy)-ethoxy]-ethoxy}-quinazolin-4-yl)-(4-methoxy-phenyl)-methyl-amine], the IC50 turned out to be 65 nM in experiment [1] and 74 nM in experiment [2].

On to `COCCOCCOC(=O)OCCNc1nc(N(C)c2ccc(OC)cc2)c2ccccc2n1` [Example 8, Carbonic acid 2-(2-methoxy-ethoxy)-ethyl ester 2-{4-[(4-methoxy-phenyl)-methyl-amino]-quinazolin-2-ylamino}-ethyl ester], for which the IC50 in experiment [1] turned out to be 25 nM; in experiment [2], 30 nM.

With `COc1ccc(N(C)c2nc(NCCOCCOCCN)nc3ccccc23)cc1` [Example 3, N^2-{2-[2-(2-Amino-ethoxy)-ethoxy]-ethyl}-N^4-(4-methoxy-phenyl)-N^4-methyl-quinazoline-2,4-diamine], the half-inhibitory concentration (IC50) in experiment [1] amounted to 1400 nM; in experiment [2], 2000 nM.

Regarding `COc1ccc(N(C)c2nc(N3CCNCC3)nc3ccccc23)cc1` [Example 9, (4-Methoxy-phenyl)-methyl-(2-piperazin-1-yl-quinazolin-4-yl)-amine], the figures for the IC50 in experiment [1] and in experiment [2] were 2600 nM and 3200 nM, respectively.
